Results from patent publication US20130281311A1, “SPECIFIC BIOMARKER FOR IDENTIFICATON OF EXPOSURE TO PROPIONALDEHYDE AND THE METHOD OF IDENTIFICATION USING THE SAME” (KOREA INSTITUTE OF SCIENCE AND TECHNOLOGY, priority 2012, published 2013).

Experiments:
[1] = Cytotoxicity test (MTT assay); assay type: cell-based, human; details: human, A549 cells; A549 cell line, 48 hours, MTT, OD540; read-out: IC20 (the concentration showing 20% survival rate)
Experimental: (§1) A549 cells (Korean Cell Line Bank), the human lung cancer tissue derived cell line, were cultured in 100 mm dish containing RPMI (Gibro-BRL, USA) supplemented with 10% FBS until the confluency reached 80%. The present inventors selected propionaldehyde, one of aldehydes among many volatile organic compounds exposed in environment, as a target material based on the previous studies and reports, and then dissolved in DMSO (dimethyl sulfoxide). The concentration of vehicle was up to 0.1% in every experiment.
(§2) MTT assay was performed with A549 cell line according to the method of Mossman, et al (J. Immunol. Methods, 65, 55-63, 1983).
(§3) Particularly, the cells were distributed in 24-well plate (3.5×10^4 cells/well) containing RPMI (Gibro-BRL, USA) and then treated with propionaldehyde dissolved in DMSO. 48 hours later, 5 mg/ml of MTT (3-4,5-dimethylthiazol-2,5-diphenyltetra zolium bromide) was added thereto, followed by culture at 37° C. for 3 hours. Then, the medium was discarded and the formed formazan crystal was dissolved in […] of DMSO, which was aliquoted in 96-well plate. OD540 was measured.

A549 cells [2] = assay: Cytotoxicity test (MTT assay); assay type: cell-based, human; details: A549, result in words
Experimental: as §1, §2, §3

[3] = system: AGT (angiotensinogen; NM_000029); assay: Oligo microarray gene expression in A549 cells, AGT; assay type: cell-based, human; details: A549, 48 hours at the concentration of Example 1-2, Cy5/Cy3 ratio
Experimental: (§4) A549 cells were distributed in 6-well plate at the density of 25×10^4 cells/ml, to which propionaldehyde was treated for 48 hours at the concentration determined in Example <1-2>. Total RNA was extracted from the cells by using trizol reagent according to the manufacturer's protocol (Invitrogen life technologies, USA), followed by purification by using RNease mini kit (Qiagen, USA). Genomic DNA was eliminated by using RNase-free DNase set (Qiagen, USA) during the RNA purification. The amount of total RNA was measured with spectrophotometer, and the concentration was confirmed by ND-1000 Spectrophotometer (Thermo Fisher Scientific Inc., USA) and Agilent 2100 Bioanalyzer (Agilent).
(§5) For oligomicroarray analysis, cDNA was synthesized by using the total RNA obtained from the experimental group treated with propionaldehyde prepared in Example <2-1>. 30 μg of the obtained total RNA and 2 μg of oligo (dT) primer (1 μg/μl) were mixed together, followed by reaction at 65° C. for 10 minutes, which was transferred into ice for annealing. […]
(§6) Hybridization images on the slide were scanned with Agilent C scanner (Agilent technologies, CA, USA). […] To obtain gene expression rate, the scanned images were analyzed by using Agilent Feature Extraction 10.7.3.1 (Agilent technologies, CA, USA). […]

[4] = system: LPAR1 (lysophosphatidic acid receptor 1; NM_057159); assay: Oligo microarray gene expression in A549 cells, LPAR1; assay type: cell-based, human; details: A549, 48 hours at the concentration of Example 1-2, Cy5/Cy3 ratio
Experimental: as §4, §5, §6

[5] = system: SECTM1 (secreted and transmembrane 1; NM_003004); assay: Oligo microarray gene expression in A549 cells, SECTM1; assay type: cell-based, human; details: A549, 48 hours at the concentration of Example 1-2, Cy5/Cy3 ratio
Experimental: as §4, §5, §6

[6] = system: TNFSF10 (tumor necrosis factor (ligand) superfamily, member 10; NM_003810); assay: Oligo microarray gene expression in A549 cells, TNFSF10; assay type: cell-based, human; details: A549, 48 hours at the concentration of Example 1-2, Cy5/Cy3 ratio
Experimental: as §4, §5, §6

[7] = system: HMOX1 (heme oxygenase 1; NM_002133); assay: Oligo microarray gene expression in A549 cells, HMOX1; assay type: cell-based, human; details: A549, 48 hours at the concentration of Example 1-2, Cy5/Cy3 ratio
Experimental: as §4, §5, §6

A549 cells [8] = assay: Human whole genome oligo microarray, genome-wide expression change; assay type: cell-based; details: A549, 48 hours
Experimental: In a preferred embodiment of the present invention, to screen a biomarker for the identification of propionaldehyde specific exposure, the present inventors treated propionaldehyde to the human lung cancer tissue derived cell line A549 and then investigated cytotoxicity therein. […] Based on the result of that experiment, the concentration of propionaldehyde was determined. Propionaldehyde was treated to the human lung cancer tissue derived cell line at the determined concentration. From the cell line treated with propionaldehyde, mRNA was extracted, followed by synthesis of cDNA which was labeled with fluorescein (Cy5). The control not treated with propionaldehyde was labeled with Cy3. The fluorescein-labeled cDNA was hybridized with 8×60 k oligomicroarray chip [Human whole genome oligo microarray (Agilent, USA)], followed by scanning fluorescence image to analyze gene expression patterns (see FIG. 2). […] 5 kinds of genes whose expressions were increased or decreased specifically by propionaldehyde alone among […] (butylaldehyde, valeradehyde, hexanal, heptanal, octanal, and propionaldehyde) were selected by using real-time quantitative PCR (see FIG. 3, Table 3, and Table 4). […]
A549 cells were distributed in 6-well plate at the density of 25×10^4 cells/ml, to which propionaldehyde was treated for 48 hours at the concentration determined in Example <1-2>. […]

[9] = system: AGT, LPAR1, SECTM1, TNFSF10, HMOX1; assay: Quantitative real-time RT-PCR of the 5 marker genes; assay type: cell-based, human; details: endogenous control MDH1; result in words
Experimental: At that time, to confirm the propionaldehyde specific expression changes, the said genes were investigated with their expression patterns using the additional 5 aldehydes listed in Table 3.
Particularly, cDNA was synthesized by performing reverse transcription by using oligo dT primer and Superscript kit (Omniscipt™ kit, Qiagen, Co., USA). 0.2 μl of the synthesized cDNA was mixed with 3.8 μl of water, 0.5 μl of sense primer, 0.5 μl of anti-sense primer, and 5 μl of SYBR Green I staining supermix (Bio-rad, USA), which was loaded in PCR tube, followed by reaction in My IQ real-time PCR machine designed to execute reaction as follows: step 1, 95° C. for 3 minutes; step 2 (45 cycles), step 2-1, 95° C. for 10 seconds; step 2-2, 57° C. for 45 seconds; step 3, 95° C. for 1 minute; step 4, 55° C. for 1 minute; step 5 (80 cycles), 55° C. for 10 seconds. The PCR product was stained with SYBR Green I (Bio-rad, USA) to quantify thereof. SYBR Green I staining is the method taking advantage of intercalating with double-stranded DNA, and thus the more double-stranded DNA is produced, the stronger the fluorescence intensity is obtained during PCR. Primers for the target gene used for PCR and the endogenous control (MDH1) were added to SYBR Green master-mix, followed by PCR. […] Then, PCR was performed and the result was analyzed by using quantitative software.

**Q.** For `CCC=O` [propionaldehyde], which IC20 at 48 h [1] is on record?
**A.** The IC20 at 48 h was 2500 µM.

**Q.** And the “cytotoxicity in the human lung cancer tissue derived cell line” value (A549 cells [2])?
**A.** The value was “had cytotoxicity”.

**Q.** What about the “Median ratio of microarray by propionaldehyde exposure, AGT” value [3] of the same compound?
**A.** Its value is 0.55.

**Q.** What about the “Median ratio of microarray by propionaldehyde exposure, LPAR1” value [4] of the same compound?
**A.** The value was 0.62.

**Q.** What about the “Median ratio of microarray by propionaldehyde exposure, SECTM1” value [5] of the same compound?
**A.** The value was 0.63.

**Q.** And the “Median ratio of microarray by propionaldehyde exposure, TNFSF10” value [6]?
**A.** The value was 0.65.

**Q.** What about the “Median ratio of microarray by propionaldehyde exposure, HMOX1” value [7] of the same compound?
**A.** Its value is 1.52.

**Q.** And the “genes showing at least 1.5 fold higher expression (Cy5/Cy3 ratio)” value (A549 cells [8]; 900 genes out of 42,405)?
**A.** Its value is 2.12%.

**Q.** What about the “genes showing lower expression (Cy5/Cy3 ratio lower than 0.66)” value (A549 cells [8]; 1,522 genes out of 42,405) of the same compound?
**A.** The value was 3.59%.

**Q.** What about the “expression patterns of the 5 genes by real-time RT-PCR” value [9] of the same compound?
**A.** The value was “very similar to the results of microarray chip analysis”.
